# Data published in patent publication US6413764B1, “Human metabotropic glutamate receptors, nucleic acids encoding same and uses thereof” (Merck & Co., Inc., priority 1993, dated 2002).
# Where two headings read alike, the source gives them in different places.
# What was measured:
# human mGluR5a receptor [1] = target: T1, human mGluR5a receptor (Homo sapiens, UniProt P41594); test: Two-electrode voltage clamp of Xenopus oocytes injected with mGluR5a3 transcripts; assay type: cell-based; details: for transmembrane currents after application of the compound: oocytes injected with mGluR5a3 transcripts, 0.001-0.1 μM quisqualate, 0.1-10 μM glutamate, 0.1-300 μM 1S,3R-ACPD, clamped at −80 to −100 mV; for dose-response of current magnitude: varying amounts of each compound, mGluR5a3 transcripts
# Method: Xenopus oocytes were injected with in vitro transcripts prepared from constructs containing DNA encoding human metabotropic receptors. Electrophysiological measurements of the oocyte transmembrane currents were made using the two-electrode voltage clamp technique (see e.g., Stuhmer (1992) Meth. Enzymol. 207:319-339).
# Recombinant capped transcripts of metabotropic receptor cDNAs contained in construct mGluR5a3 were synthesized from linearized plasmids using the Megascript Kit (Cat. #1334, Ambion, Inc., Austin, Tex.). The mass of each synthesized transcript was determined by UV absorbance and the integrity of each transcript was determined by electrophoresis through an agarose gel.
# Xenopus oocytes were injected with 10-50 ng of metabotropic receptor transcripts per oocyte. The preparation and injection of oocytes were carried out as described by Dascal [(1987) Crit; Rev. Biochem. 22:317-387]. Two-to-six days following mRNA injection, the oocytes were examined using the two-electrode voltage clamp technique. The cells were bathed in Ringer's solution (115 mM NaCl, 2.5 mM KCl, 1.8 mM CaCl2, 10 mM HEPES, pH 7.3), and the membrane potential was clamped at −80 to −100 mV. Drugs were applied by pipetting 60 μl aliquots of drug-containing solution directly into the bath. Data were sampled at 2-5 Hz with a Labmaster data acquisition board in PC-386 using AXOTAPE version 1.2 (Axon Instruments, Foster City, Calif.) software. Data were exported to a laser printer or plotted using Sigmaplot version 5.0.
# Metabotropic receptor-modulating compounds, i.e., 0.001-0.1 μM quisqualate, 0.1-10 μM glutamate and 0.1-300 μM 1S,3R-ACPD (1-amino-cyclopentyl-1,3-dicarboxylic acid), were applied to the bath and the transmembrane currents were recorded.
# human mGluR5a receptor [2] = target: T1, human mGluR5a receptor; test: Automated fluorescence assay (fluo-3) in transiently transfected HEK 293 cells; assay type: cell-based; design: expressed in transfected cells; host or cells: HEK 293 cells, transient CaPO4 transfection
# Method: HEK 293 cells were transiently transfected with DNA encoding mGluR5a (constructs mGluR5a2 and mGluR5a3 and construct MMTV-hmGluR5a) receptors. Approximately 2×10^6 HEK cells were transiently transfected with 5-18 μg (or 0.18 μg in some transfections, see Example 3.C.2.) of the indicated plasmid according to standard CaPO4 transfection procedures [see Wigler et al. (1979) Proc. Natl. Acad. Sci. USA 76:1373-1376]. In addition, 0.5-2 μg (or 0.18 μg in some transfections, see Example 3.C.2) of plasmid pCMVβgal (Clontech Laboratories, Palo Alto, Calif.), which contains the Escherichia coli β-galactosidase gene fused to the CMV promoter, were co-transfected as a reporter gene for monitoring the efficiency of transfection. The transfectants were analyzed for β-galactosidase expression by direct staining of the product of a reaction involving β-galactosidase and the X-gal substrate [Jones (1986) EMBO 5:3133-3142]. Transfectants can also be analyzed for β-galactosidase expression by measurement of β-galactosidase activity [Miller (1972) in Experiments in Molecular Genetics, pp.352-355, Cold Spring Harbor Press].
# HEK 293 cells that were transiently transfected with 5 μg of MMTV-hmGluR5A were co-transfected with 5 μg of pRShGR (ATCC accession no. 67200) which contains DNA encoding a glucocorticoid receptor operatively linked to the Rous Sarcoma virus (RSV) LTR promoter. Co-expression of glucocorticoid receptors in these cells should insure that induction of expression of the MMTV promoter-mGluR5a DNA occurs upon addition of glucocorticoid (e.g., dexamethasone) to the cells.
# Untransfected HEK 293 cells (or HEK 293 cells transiently transfected with pCMV-T7-3) and HEK 293 cells that had been transfected with mGluR5a-encoding DNA were plated in the wells of a 96-well microtiter dish (Nunc Catalog No. 1-6708, distributed by Alameda Industries, Escondido, Calif.) that had been precoated with poly-L-lysine at a density of 2×10^5 cells/well and loaded with fluo-3 by incubation for 2 hours at 20° C. in a medium containing 20 μM fluo-3, 0.2% Pluronic F-127 in HBS (125 mM NaCl, 5 mM KCl, 1.8 mM CaCl2, 0.62 MM MgCl2, 20 mM glucose, 20 mM HEPES, pH 7.4). The cells were then washed with assay buffer (i.e. HBS). The microtiter dish was then placed into a fluorescence plate reader (e.g., Fluoroskan II, Lab Products International, Ltd., Raleigh, N.C.), and the basal fluorescence of each well was measured and recorded before addition of metabotropic receptor-modulating compounds such as quisqualate, glutamate, trans-ACPD (1-amino-cyclopentane-1,3-dicarboxylic acid), 1S,3R-ACPD, AP3 (2-amino-3-phosphonopropionate) AP5 (2-amino-5-phosphonopentanoate), and CNQX (6-cyano-7-nitroquinoxaline-2,3-dione) to the wells. The fluorescence of the wells was monitored repeatedly (75 readings at 0.63-sec intervals) following addition of agonist.
# [3] = HEK 293 transiently transfected with mGluR5a3 or MMTV-hmGluR5a, fluo-3
# [4] = cells transfected with mGluR5a3, varying amounts of compound
# T1 sequence (P41594 21-1180 isoform P41594-2 limits assumed): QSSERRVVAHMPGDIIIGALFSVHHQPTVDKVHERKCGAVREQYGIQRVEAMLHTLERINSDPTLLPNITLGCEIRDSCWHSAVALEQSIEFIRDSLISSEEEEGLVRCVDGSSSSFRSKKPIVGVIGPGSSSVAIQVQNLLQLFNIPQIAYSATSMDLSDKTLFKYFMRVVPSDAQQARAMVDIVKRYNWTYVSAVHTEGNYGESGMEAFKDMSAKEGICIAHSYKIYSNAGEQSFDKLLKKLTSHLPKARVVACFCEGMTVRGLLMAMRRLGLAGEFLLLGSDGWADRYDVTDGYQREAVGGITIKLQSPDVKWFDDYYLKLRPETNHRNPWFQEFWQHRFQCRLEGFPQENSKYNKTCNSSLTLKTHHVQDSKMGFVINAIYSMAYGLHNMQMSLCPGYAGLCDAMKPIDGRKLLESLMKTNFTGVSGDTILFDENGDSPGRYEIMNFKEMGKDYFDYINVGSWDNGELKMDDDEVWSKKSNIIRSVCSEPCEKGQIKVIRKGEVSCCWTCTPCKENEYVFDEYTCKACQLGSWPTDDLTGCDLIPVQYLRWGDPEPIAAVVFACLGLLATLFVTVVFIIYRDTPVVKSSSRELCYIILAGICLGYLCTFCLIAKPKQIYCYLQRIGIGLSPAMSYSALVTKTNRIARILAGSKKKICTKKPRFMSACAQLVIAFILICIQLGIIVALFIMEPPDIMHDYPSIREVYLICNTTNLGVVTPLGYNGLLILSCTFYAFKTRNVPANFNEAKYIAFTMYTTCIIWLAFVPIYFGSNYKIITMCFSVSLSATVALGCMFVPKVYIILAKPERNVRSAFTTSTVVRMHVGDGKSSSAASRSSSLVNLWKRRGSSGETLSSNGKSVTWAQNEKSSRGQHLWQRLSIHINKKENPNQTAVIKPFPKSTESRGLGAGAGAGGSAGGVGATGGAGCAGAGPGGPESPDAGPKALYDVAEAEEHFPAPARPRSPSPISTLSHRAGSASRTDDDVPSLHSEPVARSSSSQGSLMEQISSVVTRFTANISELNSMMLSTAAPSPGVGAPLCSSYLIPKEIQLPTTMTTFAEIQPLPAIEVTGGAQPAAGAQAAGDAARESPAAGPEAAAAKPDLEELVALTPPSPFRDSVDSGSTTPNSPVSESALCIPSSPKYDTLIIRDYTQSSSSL
SMILES,transmembrane currents after application of the compound (human mGluR5a receptor [1]),dose-response of current magnitude (human mGluR5a receptor [1]),fluorescence change in response to application of compound (human mGluR5a receptor [2]; [3]),dose-response of peak fluorescence (human mGluR5a receptor [2]; [4]),dose-response of peak fluorescence (human mGluR5a receptor [2]),fluorescence change in response to application of compound (human mGluR5a receptor [2]),fluorescence change in response to compound (human mGluR5a receptor [2])
"NC1(C(=O)O)CCC(C(=O)O)C1 (stereo not drawn) [1S,3R-ACPD, 1-amino-cyclopentyl-1,3-dicarboxylic acid]",Significant currents were detected,current magnitude increased with increasing concentration,increased,magnitude of the peak fluorescence increased with increasing concentration,,,
N[C@@H](CCC(=O)O)C(=O)O [glutamate],Significant currents were detected,current magnitude increased with increasing concentration,increased,magnitude of the peak fluorescence increased with increasing concentration,,,
N[C@@H](Cn1oc(=O)[nH]c1=O)C(=O)O [quisqualate],Significant currents were detected,current magnitude increased with increasing concentration,,,magnitude of the peak fluorescence increased with increasing concentration,increased,increased
